Assay: HCV replicon assay (luciferase) in ET (Huh-lucubineo-ET) cell line
Assay type: cell-based
Conditions: Hepatitis C virus, inhibition of replication relative to no compound control, ET replicon cells, luciferase 48-72 hours; for inhibition at 5 µM: tested at 5 μM; for inhibition at 10 µM: tested at 10 μM, read-out: % inhition at 10 μM
From the text: A cell line, ET (Huh-lucubineo-ET) was used for screening of compounds, or pharmaceutically acceptable salts or solvates, described herein for inhibition of HCV RNA dependent RNA polymerase. The ET cell line was stably transfected with RNA transcripts harboring a I389luc-ubi-neo/NS3-3′/ET; replicon with firefly luciferase-ubiquitin-neomycin phosphotransferase fusion protein and EMCV-IRES driven NS3-5B polyprotein containing the cell culture adaptive mutations (E1202G; T1280I; K1846T) (Krieger at al, 2001 and unpublished). The ET cells were grown in DMEM, supplemented with 10% fetal calf serum, 2 mM Glutamine, Penicillin (100 IU/mL)/Streptomycin (100 μg/mL), 1× nonessential amino acids, and 250 μg/mL G418 (“Geneticin”). They were all available through Life Technologies (Bethesda, Md.). The cells were plated at 0.5−1.0×10^4 cells/well in the 96 well plates and incubated for 24 hrs before adding the test compounds. […] Luciferase activity was measured 48-72 hours later by adding a lysis buffer and the substrate (Catalog number Glo-lysis buffer E2661 and Bright-Glo luciferase system E2620 Promega, Madison, Wis.). Cells should not be too confluent during the assay. Percent inhibition of replication was plotted relative to no compound control. Under the same condition, cytotoxicity of the compounds was determined using cell proliferation reagent, WST-1 (Roche, Germany). The compounds showing antiviral activities, but no significant cytotoxicities were chosen to determine the EC50 and TC50, the effective concentration and toxic concentration at which 50% of the maximum inhibition is observed. For these determinations, 6 dilutions of each compound were used. Compounds were typically diluted 3 fold to span a concentration range of 250 fold. EC50 and similarly TC50 values were calculated by fitting % inhibition at each concentration to the following equation:
% inhibition=100%/[(EC50/[I])^b+1]
where b is Hill's coefficient.

| SMILES | inhibition at 5 µM | inhibition at 10 µM |
| --- | --- | --- |
| Fc1ccc(-c2cc(Cn3cc4nc(-c5cccc(F)c5F)nc-4cn3)on2)c(C(F)(F)F)c1 [Compound 101, 2-(2,3-Difluoro-phenyl)-5-[3-(4-fluoro-2-trifluoromethyl-phenyl)-isoxazol-5-ylmethyl]-5H-imidazo[4,5-d]pyridazine] | 80.3% | 92.9% |
| CC(C)Oc1ccc(-c2cc(Cn3cc4nc(-c5cccc(F)c5F)nc-4cn3)on2)cc1 [Compound 102, 2-(2,3-Difluoro-phenyl)-5-[3-(4-isopropoxy-phenyl)-isoxazol-5-ylmethyl]-5H-imidazo[4,5-d]pyridazine] | 99.8% | 99.7% |
| Fc1cccc(-c2nc3cnn(Cc4cc(-c5ccc(C(F)(F)F)cc5C(F)(F)F)no4)cc-3n2)c1F [Compound 103, 5-[3-(2,4-Bis-trifluoromethyl-phenyl)-isoxazol-5-ylmethyl]-2-(2,3-difluoro-phenyl)-5H-imidazo[4,5-d]pyridazine] | 100% | 100% |
| Fc1cccc(-c2nc3cnn(Cc4cc(-c5ccc(Cl)cc5)no4)cc-3n2)c1F [Compound 104, 5-[3-(4-Chloro-phenyl)-isoxazol-5-ylmethyl]-2-(2,3-difluoro-phenyl)-5H-imidazo[4,5-d]pyridazine] | 99.7% | 99.7% |
| CCCOc1ccc(-c2cc(Cn3cc4nc(-c5cccc(F)c5F)nc-4cn3)on2)cc1 [Compound 105, 2-(2,3-Difluoro-phenyl)-5-[3-(4-propoxy-phenyl)-isoxazol-5-ylmethyl]-5H-imidazo[4,5-d]pyridazine] | 99.9% | 99.7% |
| CCCCOc1ccc(-c2cc(Cn3cc4nc(-c5ccccc5F)nc-4cn3)on2)cc1 [Compound 106, 5-[3-(4-Butoxy-phenyl)-isoxazol-5-ylmethyl]-2-(2-fluoro-phenyl)-5H-imidazo[4,5-d]pyridazine] | 99.3% | 99.7% |
| CCCCCOc1ccc(-c2cc(Cn3cc4nc(-c5ccccc5F)nc-4cn3)on2)cc1 [Compound 107, 2-(2-Fluoro-phenyl)-5-[3-(4-pentyloxy-phenyl)-isoxazol-5-ylmethyl]-5H-imidazo[4,5-d]pyridazine] | 98.4% | 99.4% |
| Fc1ccccc1-c1nc2cnn(Cc3cc(-c4ccc(OC(F)(F)F)cc4)no3)cc-2n1 [Compound 108, 2-(2-Fluoro-phenyl)-5-[3-(4-trifluoromethoxy-phenyl)-isoxazol-5-ylmethyl]-5H-imidazo[4,5-d]pyridazine] | 99.9% | 100% |
| COc1ccc(-c2cc(Cn3cc4nc(-c5ccccc5F)nc-4cn3)on2)cc1 [Compound 109, 2-(2-Fluoro-phenyl)-5-[3-(4-methoxy-phenyl)-isoxazol-5-ylmethyl]-5H-imidazo[4,5-d]pyridazine] | 98% | 95.4% |
| CCOc1ccc(-c2cc(Cn3cc4nc(-c5ccccc5F)nc-4cn3)on2)cc1 [Compound 110, 5-[3-(4-Ethoxy-phenyl)-isoxazol-5-ylmethyl]-2-(2-fluoro-phenyl)-55H-imidazo[4,5-d]pyridazine] | 99.4% | 97.4% |
| Fc1ccccc1-c1nc2cnn(Cc3cc(-c4ccccc4)no3)cc-2n1 [Compound 111, 2-(2-Fluoro-phenyl)-5-(3-phenyl-isoxazol-5-ylmethyl)-5H-imidazo[4,5-d]pyridazine] | 16% | – |
| CC(C)Oc1ccc(-c2cc(Cn3cc4nc(-c5ccccc5F)nc-4cn3)on2)cc1 [Compound 112, 2-(2-Fluoro-phenyl)-5-[3-(4-isopropoxy-phenyl)-isoxazol-5-ylmethyl]-5H-imidazo[4,5-d]pyridazine] | 80.9% | 85.9% |
| Fc1ccccc1-c1nc2cnn(Cc3nc(-c4ccc(Cl)cc4)no3)cc-2n1 [Compound 113, 5-[3-(4-Chloro-phenyl)-[1,2,4]oxadiazol-5-ylmethyl]-2-(2-fluoro-phenyl)-5H-imidazo[4,5-d]pyridazine] | 24.9% | 41.7% |
| Fc1ccccc1-c1nc2cnn(Cc3cc(-c4ccc(C(F)(F)F)cc4C(F)(F)F)no3)cc-2n1 [Compound 114, 5-[3-(2,4-Bis-trifluoromethyl-phenyl)-isoxazol-5-ylmethyl]-2-(2-fluoro-phenyl)-5H-imidazo[4,5-d]pyridazine] | 99.3% | 98.5% |
| Fc1ccc(-c2cc(Cn3cc4nc(-c5ccccc5F)nc-4cn3)on2)c(C(F)(F)F)c1 [Compound 115, 2-(2-Fluoro-phenyl)-5-[3-(4-fluoro-2-trifluoromethyl-phenyl)-isoxazol-5-ylmethyl]-5H-imidazo[4,5-d]pyridazine] | 67.6% | 75.3% |
| Fc1ccccc1-c1nc2cnn(Cc3cc(-c4ccc(Cl)cc4)no3)cc-2n1 [Compound 116, 5-[3-(4-Chloro-phenyl)-isoxazol-5-ylmethyl]-2-(2-fluoro-phenyl)-5H-imidazo[4,5-d]pyridazine] | 92.1% | 92.8% |
| CCCOc1ccc(-c2cc(Cn3cc4nc(-c5ccccc5F)nc-4cn3)on2)cc1 [Compound 117, 2-(2-Fluoro-phenyl)-5-[3-(4-propoxy-phenyl)-isoxazol-5-ylmethyl]-5H-imidazo[4,5-d]pyridazine] | 99.8% | 99.1% |
| Nc1ccccc1-c1nc2cnn(Cc3cc(-c4ccc(C(F)(F)F)cc4C(F)(F)F)no3)cc-2n1 [Compound 119, 2-{5-[3-(2,4-Bis-trifluoromethyl-phenyl)-isoxazol-5-ylmethyl]-5H-imidazo[4,5-d]pyridazine-2-yl}-phenylamine] | – | 0% |
| NC(=O)c1ccccc1-c1nc2cnn(Cc3cc(-c4ccc(C(F)(F)F)cc4C(F)(F)F)no3)cc-2n1 [Compound 133, 2-{5-[3-(2,4-Bis-trifluoromethyl-phenyl)-isoxazol-5-ylmethyl]-5H-imidazo[4,5-d]pyridazin-2-yl}-benzamide] | – | 10.1% |
| Oc1ccccc1-c1nc2cnn(Cc3cc(-c4ccc(C(F)(F)F)cc4C(F)(F)F)no3)cc-2n1 [Compound 134, 2-{5-[3-(2,4-Bis-trifluoromethyl-phenyl)-isoxazol-5-ylmethyl]-5H-imidazo[4,5-d]pyridazin-2-yl}-phenol] | – | 0.51% |
| FC(F)(F)c1ccc(-c2nc3cnn(Cc4cc(-c5ccc(C(F)(F)F)cc5C(F)(F)F)no4)cc-3n2)cc1 [Compound 135, 5-[3-(2,4-Bis-trifluoromethyl-phenyl)-isoxazol-5-ylmethyl]-2-(4-trifluoromethyl-phenyl)-5H-imidazo[4,5-d]pyridazine] | – | 0.79% |
| FC(F)(F)c1ccc(-c2cc(Cn3cc4nc(-c5cccc6[nH]ccc56)nc-4cn3)on2)c(C(F)(F)F)c1 [Compound 136, 5-[3-(2,4-Bis-trifluoromethyl-phenyl)-isoxazol-5-ylmethyl]-2-(1H-indol-4-yl)-5H-imidazo[4,5-d]pyridazine] | – | 5.84% |
| CC(=O)c1ccc(F)c(-c2nc3cnn(Cc4cc(-c5ccc(C(F)(F)F)cc5C(F)(F)F)no4)cc-3n2)c1 [Compound 137, 1-(3-{5-[3-(2,4-Bis-trifluoromethyl-phenyl)-isoxazol-5-ylmethyl]-5H-imidazo[4,5-d]pyridazin-2-yl}-4-fluoro-phenyl)-ethanone] | – | 40.4% |

Reference: patent US20090197880A1 (Genelabs Technologies, Inc., priority 2007, published 2009)
